Reference: PubChem BioAssay AID326 (DTP/NCI, 2004)
Several values for one entry are separate records, joined by “and”; a condition that tells them apart may be missing. Identical values can stand only once. Inconclusive results and toxic doses are left out. How the source made its calls: active means survival T/C of 150% or more; inactive means T/C below 125% in these data.

Test system: CD2F1 mice, P388/DHAQ leukemia ip, median survival T/C
Assay: NCI In Vivo Anticancer Drug Screen. Data for tumor model P388 Leukemia resistant to Dihydroxy Anthracenedione; NSC 299195 (intraperitoneal) in CD2F1 (CDF1) mice
Conditions: endpoint: median survival time, higher = longer survival
Experimental: The antitumor activity of compounds was measured in mice bearing transplantable tumors. Survival or tumor size were measured and the results are expressed as the measurement made in the treated group (T) divided by the measurement made in the vehicle treated control group (C). The tumor model used in this assay is P388 Leukemia resistant to Dihydroxy Anthracenedione; NSC 299195 (intraperitoneal) in CD2F1 (CDF1) mice

Measured: T/C

COc1c(O)c2c(c3cc(C(=O)N4CCc5c4c(O)c(OC)c4[nH]c(C(=O)N6CC7CC78C6=CC(=O)c6[nH]cc(C)c68)cc54)[nH]c13)CCN2C(N)=O (stereo unspecified)
inactive: dose: 0.05 mg/kg/injection, schedule: Q04DX003 (ip), vehicle: DMSO 122 % of control | dose: 0.09 mg/kg/injection, schedule: Q04DX003 (ip), vehicle: DMSO 119 % of control | dose: 13.0 micrograms/kg/injection, schedule: Q01DX009 (ip), vehicle: DMSO 100 % of control | dose: 21.6 micrograms/kg/injection, schedule: Q01DX009 (ip), vehicle: DMSO 96 % of control | dose: 36.0 micrograms/kg/injection, schedule: Q01DX009 (ip), vehicle: DMSO 94 % of control | dose: 38.9 micrograms/kg/injection, schedule: Q04DX003 (ip), vehicle: DMSO 114 % of control | dose: 60.0 micrograms/kg/injection, schedule: Q01DX009 (ip), vehicle: DMSO 93 % of control | dose: 64.8 micrograms/kg/injection, schedule: Q04DX003 (ip), vehicle: DMSO 114 % of control | dose: 100.0 micrograms/kg/injection, schedule: Q01DX009 (ip), vehicle: DMSO 94 % of control | dose: 108.0 micrograms/kg/injection, schedule: Q04DX003 (ip), vehicle: DMSO 121 % of control | dose: 180.0 micrograms/kg/injection, schedule: Q04DX003 (ip), vehicle: DMSO 105 % of control | dose: 300.0 micrograms/kg/injection, schedule: Q04DX003 (ip), vehicle: DMSO 102 % of control | dose: 300.0 micrograms/kg/injection, schedule: Q04DX003 (ip), vehicle: saline 100 % of control

COc1cc(NS(C)(=O)=O)ccc1Nc1c2ccccc2nc2ccccc12
inactive: dose: 2.59 mg/kg/injection, schedule: Q04DX002 (ip), vehicle: other 108 % of control and 114 % of control (2×) | dose: 2.59 mg/kg/injection, schedule: Q04DX003 (ip), vehicle: saline 107 % of control | dose: 4.32 mg/kg/injection, schedule: Q04DX003 (ip), vehicle: saline 117 % of control
